Laboratory results: publication PMC4411097, “Pachymic Acid Inhibits Growth and Induces Apoptosis of Pancreatic Cancer In Vitro and In Vivo by Targeting ER Stress” (PLoS ONE, 2015)

System: MIA PaCa-2 cells
Assay: DNA microarray analysis (Affymetrix Human PrimeView)
Assay type: cell-based
[1] = gene SRP19, probeset 11758864_at
[2] = gene STC1, probeset 11750279_a_at
[3] = gene TMEM201, probeset 11726819_at
[4] = gene TNFAIP2, probeset 11717823_s_at
[5] = gene TNFRSF12A, probeset 11745020_a_at
[6] = gene TNFSF18, probeset 11737853_at
[7] = gene TRAF1, probeset 11721588_at
[8] = gene TXNRD1, probeset 11750416_a_at
[9] = gene symbol ---, probeset AFFX-M27830_M_at

`C=C(CC[C@@H](C(=O)O)[C@H]1[C@H](O)C[C@@]2(C)C3=C(CC[C@]12C)[C@@]1(C)CC[C@H](OC(C)=O)C(C)(C)[C@@H]1CC3)C(C)C` [PA, Pachymic acid] was tested, and the “Mean (MiaPaca-2 * PA)” value (gene SPRY4, probeset 11736669_s_at, MiaPaca-2, PA-treated) was 6.19, the “Fold-Change (MiaPaca-2 * PA vs. MiaPaca-2 * control)” value [1] was 1.58 and the “Mean (MiaPaca-2 * PA)” value [1] was 8.71. The “Fold-Change (MiaPaca-2 * PA vs. MiaPaca-2 * control)” value [2] was 1.56, the “Mean (MiaPaca-2 * PA)” value [2] was 5.97 and the “Mean (MiaPaca-2 * PA)” value (gene STX1A, probeset 11720340_a_at) was 6.73. For the same compound, the “Fold-Change (MiaPaca-2 * PA vs. MiaPaca-2 * control)” value [3] was 1.56, the “Mean (MiaPaca-2 * PA)” value [3] was 6.77 and the “Fold-Change (MiaPaca-2 * PA vs. MiaPaca-2 * control)” value (gene TNF, probeset 11721577_at) was 1.57. For the same compound, the “Mean (MiaPaca-2 * PA)” value (gene TNF, probeset 11721577_at) was 5.89, the “Fold-Change (MiaPaca-2 * PA vs. MiaPaca-2 * control)” value [4] was 1.60 and the “Mean (MiaPaca-2 * PA)” value [4] was 8.52. For the same compound, the “Fold-Change (MiaPaca-2 * PA vs. MiaPaca-2 * control)” value [5] was 1.59, the “Mean (MiaPaca-2 * PA)” value [5] was 9.93 and the “Fold-Change (MiaPaca-2 * PA vs. MiaPaca-2 * control)” value [6] was 1.61. The “Mean (MiaPaca-2 * PA)” value [6] was 7.58, the “Fold-Change (MiaPaca-2 * PA vs. MiaPaca-2 * control)” value (gene TRA2B, probeset 11734663_at, MiaPaca-2) was 1.51 and the “Mean (MiaPaca-2 * PA)” value (gene TRA2B, probeset 11734663_at, MiaPaca-2, PA-treated) was 5.21. For the same compound, the “Fold-Change (MiaPaca-2 * PA vs. MiaPaca-2 * control)” value [7] was 1.57, the “Mean (MiaPaca-2 * PA)” value [7] was 5.45 and the “Fold-Change (MiaPaca-2 * PA vs. MiaPaca-2 * control)” value [8] was 1.56. The “Mean (MiaPaca-2 * PA)” value [8] was 9.74, the “Fold-Change (MiaPaca-2 * PA vs. MiaPaca-2 * control)” value [9] was 1.54 and the “Mean (MiaPaca-2 * PA)” value [9] was 11.57. The “Fold-Change (MiaPaca-2 * PA vs. MiaPaca-2 * control), CDKN1A” value (probeset 11715388_s_at) was 1.87, the “Mean (MiaPaca-2 * PA), CDKN1A” value (probeset 11715388_s_at) was 8.59 and the “Fold-Change (MiaPaca-2 * PA vs. MiaPaca-2 * control), CTGF” value (probeset 11715441_a_at) was 2.27. The “Mean (MiaPaca-2 * PA), CTGF” value (probeset 11715441_a_at) was 6.57, the “Fold-Change (MiaPaca-2 * PA vs. MiaPaca-2 * control), CTGF” value (probeset 11715442_s_at) was 2.36 and the “Mean (MiaPaca-2 * PA), CTGF” value (probeset 11715442_s_at) was 7.76. For the same compound, the “Fold-Change (MiaPaca-2 * PA vs. MiaPaca-2 * control), CYR61” value (probeset 11715493_a_at) was 2.12, the “Mean (MiaPaca-2 * PA), CYR61” value (probeset 11715493_a_at) was 10.88 and the “Fold-Change (MiaPaca-2 * PA vs. MiaPaca-2 * control), SERPINE1” value (probeset 11715636_a_at) was 1.72. The “Mean (MiaPaca-2 * PA), SERPINE1” value (probeset 11715636_a_at) was 9.63, the “Fold-Change (MiaPaca-2 * PA vs. MiaPaca-2 * control), DUSP1” value (probeset 11715766_a_at) was 1.72 and the “Mean (MiaPaca-2 * PA), DUSP1” value (probeset 11715766_a_at) was 8.75. The “Fold-Change (MiaPaca-2 * PA vs. MiaPaca-2 * control), HMOX1” value (probeset 11716939_a_at) was 1.83, the “Mean (MiaPaca-2 * PA), HMOX1” value (probeset 11716939_a_at) was 7.80 and the “Fold-Change (MiaPaca-2 * PA vs. MiaPaca-2 * control), GADD45A” value (probeset 11717039_a_at) was 1.88. For the same compound, the “Mean (MiaPaca-2 * PA), GADD45A” value (probeset 11717039_a_at) was 11.35, the “Fold-Change (MiaPaca-2 * PA vs. MiaPaca-2 * control), EGR1” value (probeset 11717860_a_at) was 1.78 and the “Mean (MiaPaca-2 * PA), EGR1” value (probeset 11717860_a_at) was 10.72. The “Fold-Change (MiaPaca-2 * PA vs. MiaPaca-2 * control), DNAJA4” value (probeset 11718618_a_at) was 2.01, the “Mean (MiaPaca-2 * PA), DNAJA4” value (probeset 11718618_a_at) was 6.51 and the “Fold-Change (MiaPaca-2 * PA vs. MiaPaca-2 * control), IL8” value (probeset 11718841_s_at) was 2.40. The “Mean (MiaPaca-2 * PA), IL8” value (probeset 11718841_s_at) was 12.69, the “Fold-Change (MiaPaca-2 * PA vs. MiaPaca-2 * control), TNFAIP3” value (probeset 11718939_s_at) was 2.11 and the “Mean (MiaPaca-2 * PA), TNFAIP3” value (probeset 11718939_s_at) was 7.50. For the same compound, the “Fold-Change (MiaPaca-2 * PA vs. MiaPaca-2 * control), TNFAIP3” value (probeset 11718940_a_at) was 2.00, the “Mean (MiaPaca-2 * PA), TNFAIP3” value (probeset 11718940_a_at) was 6.10 and the “Fold-Change (MiaPaca-2 * PA vs. MiaPaca-2 * control), ATF3” value (probeset 11719344_a_at) was 3.30. For the same compound, the “Mean (MiaPaca-2 * PA), ATF3” value (probeset 11719344_a_at) was 7.56, the “Fold-Change (MiaPaca-2 * PA vs. MiaPaca-2 * control), CXCL1” value (probeset 11719366_s_at) was 2.03 and the “Mean (MiaPaca-2 * PA), CXCL1” value (probeset 11719366_s_at) was 12.27. The “Fold-Change (MiaPaca-2 * PA vs. MiaPaca-2 * control), TRIB3” value (probeset 11719811_a_at) was 1.77, the “Mean (MiaPaca-2 * PA), TRIB3” value (probeset 11719811_a_at) was 9.38 and the “Fold-Change (MiaPaca-2 * PA vs. MiaPaca-2 * control), HBEGF” value (probeset 11719898_s_at) was 2.54. The “Mean (MiaPaca-2 * PA), HBEGF” value (probeset 11719898_s_at) was 8.25, the “Fold-Change (MiaPaca-2 * PA vs. MiaPaca-2 * control), IL1B” value (probeset 11719916_at) was 1.90 and the “Mean (MiaPaca-2 * PA), IL1B” value (probeset 11719916_at) was 7.92. For the same compound, the “Fold-Change (MiaPaca-2 * PA vs. MiaPaca-2 * control), IER3” value (probeset 11720062_s_at) was 2.10, the “Mean (MiaPaca-2 * PA), IER3” value (probeset 11720062_s_at) was 10.23 and the “Fold-Change (MiaPaca-2 * PA vs. MiaPaca-2 * control), RELB” value (probeset 11722141_at) was 1.71. For the same compound, the “Mean (MiaPaca-2 * PA), RELB” value (probeset 11722141_at) was 7.47, the “Fold-Change (MiaPaca-2 * PA vs. MiaPaca-2 * control), B3GNT5” value (probeset 11722705_at) was 1.83 and the “Mean (MiaPaca-2 * PA), B3GNT5” value (probeset 11722705_at) was 6.95. For the same compound, the “Fold-Change (MiaPaca-2 * PA vs. MiaPaca-2 * control), BIRC3” value (probeset 11722850_a_at) was 1.69, the “Mean (MiaPaca-2 * PA), BIRC3” value (probeset 11722850_a_at) was 8.98 and the “Fold-Change (MiaPaca-2 * PA vs. MiaPaca-2 * control), BIRC3” value (probeset 11722851_at) was 1.77. For the same compound, the “Mean (MiaPaca-2 * PA), BIRC3” value (probeset 11722851_at) was 7.17, the “Fold-Change (MiaPaca-2 * PA vs. MiaPaca-2 * control), CDCP1” value (probeset 11722867_at) was 1.68 and the “Mean (MiaPaca-2 * PA), CDCP1” value (probeset 11722867_at) was 8.84. For the same compound, the “Fold-Change (MiaPaca-2 * PA vs. MiaPaca-2 * control), HSPA6” value (probeset 11723050_a_at) was 9.74, the “Mean (MiaPaca-2 * PA), HSPA6” value (probeset 11723050_a_at) was 8.06 and the “Fold-Change (MiaPaca-2 * PA vs. MiaPaca-2 * control), ZFAND2A” value (probeset 11723753_a_at) was 2.17. For the same compound, the “Mean (MiaPaca-2 * PA), ZFAND2A” value (probeset 11723753_a_at) was 9.04, the “Fold-Change (MiaPaca-2 * PA vs. MiaPaca-2 * control), FOSL1” value (probeset 11724478_s_at) was 1.74 and the “Mean (MiaPaca-2 * PA), FOSL1” value (probeset 11724478_s_at) was 8.17. The “Fold-Change (MiaPaca-2 * PA vs. MiaPaca-2 * control), GBP1” value (probeset 11726329_x_at) was 1.76, the “Mean (MiaPaca-2 * PA), GBP1” value (probeset 11726329_x_at) was 5.88 and the “Fold-Change (MiaPaca-2 * PA vs. MiaPaca-2 * control), SERPINB8” value (probeset 11728413_at) was 1.95. For the same compound, the “Mean (MiaPaca-2 * PA), SERPINB8” value (probeset 11728413_at) was 8.88, the “Fold-Change (MiaPaca-2 * PA vs. MiaPaca-2 * control), CXCL3” value (probeset 11728476_a_at) was 2.47 and the “Mean (MiaPaca-2 * PA), CXCL3” value (probeset 11728476_a_at) was 8.40. For the same compound, the “Fold-Change (MiaPaca-2 * PA vs. MiaPaca-2 * control), CXCL3” value (probeset 11728477_at) was 2.55, the “Mean (MiaPaca-2 * PA), CXCL3” value (probeset 11728477_at) was 8.95 and the “Fold-Change (MiaPaca-2 * PA vs. MiaPaca-2 * control), HSPA1A /// HSPA1B” value (probeset 11729119_a_at) was 1.71. The “Mean (MiaPaca-2 * PA), HSPA1A /// HSPA1B” value (probeset 11729119_a_at) was 11.39.
